“And” between values parts separate entries of the source, which are not always exact repeats. Equal entries are not always repeated. Marks after values point to notes of the source that are not given here.
Legend:
[1] = test system: superoxide dismutase (SOD); assay: Affinity ultrafiltration LC-MS/MS with SOD (relative binding affinity); design: key: -: No binding affinity; conditions: peaks of WUE-A4, SOD 2 U, 37 °C 1 h, n = 3
Description: (§1) The experimental conditions were proposed according to previous relevant studies. Briefly, the optimized experiment was composed of three steps. Incubation was the first step, where 100 μL WUE-A4 (10.0 mg/mL), 10 µL SOD (2 U) or XOD (2 U), and 90 µL Tris-HCl (pH = 7.8) were mixed well in 1.5 mL EP tubes, and then incubated at 37 °C in the dark for 1 h. Meanwhile, the incubation operations of inactivated enzymes (inactivated enzymes were obtained by heating enzymes in a 99 °C water bath for 10 min) were the same as the active enzymes. Adsorption was the second step, where the incubated solutions were transferred to ultrafiltration tubes with 30 KDa (for SOD) or 10 KDa (for XOD) ultrafiltration membranes and then centrifuged at 10,000 rpm for 10 min at 25 °C. Simultaneously, components which had no binding affinity to enzymes were washed out. Immediately, 300 µL of Tris-HCl solution (pH = 7.8) was added to the ultrafiltration tubes and centrifuged at 10,000 rpm for 5 min at 25 °C to remove the potential unbound components. Desorption was the third step, where 300 µL of 90% (v/v) MeOH-H2O was added and incubated for 10 min at room temperature, and the mixed solutions were centrifuged at 10,000 rpm for another 10 min at 25 °C. After that, the desorption process was repeated two times to release those components with specific bindings to SOD or XOD from the enzyme-ligand complexes. Finally, those ultrafiltrates were dried and reconstituted in 50 µL MeOH for the HPLC-UV/ESI-MS/MS analysis.
(§2) HPLC-UV/ESI-MS/MS was carried out to characterize the components in WUE-A4 before and after ultrafiltration by using a Thermo Accela 600 series HPLC connected with a TSQ Quantum Access MAX mass spectrometer (Thermo Fisher Scientific, San Jose, CA, USA). A Waters Symmetry RP-C18 column (4.6 × 250 mm, 5 µm) was used to perform chromatographic analysis at 30 °C, and the mobile phase consisted of H2O with 0.1% formic acid (A) and ACN (B). The optimized HPLC elution procedures were as follows: 0–15 min, 17% B; 15–40 min, 17–30% B, 40–42 min: 30–56% B. The flow rate was 0.8 mL/min, the injection volume was 10 µL, and the HPLC-UV chromatograms were detected at a wavelength of 254 nm. The negative ion modes were applied to obtained ESI-MS/MS data. Moreover, the parameters of instrument were set as follows: the vaporizer temperature was 350 °C, the capillary temperature was 250 °C, the spray voltage was 3000 V, the cone voltage energy was 40 V, the collision energy was 10 V, the sheath gas pressure was 40 psi, the aux gas pressure was 10 psi, the drying gas flow rate was 6.0 L/min, and the mass range was set from 50 to 1100 (m/z) in the full-scan mode. Finally, the Thermo Xcalibur ChemStation (Thermo Fisher Scientific) was used for data acquisition and analysis.
(§3) For further evaluation of the affinity binding strength between the potential ligands and the target enzymes, the relative binding affinity (RBA) was employed to compare the variation of the correlated peak areas in the UF-HPLC-UV chromatograms before and after activation. The RBA formula is expressed as RBA = Aactive/Ainactivated, where the Aactive and Ainactivated represent the peak areas obtained from the WUE-A4 samples with activated and inactivated SOD or XOD, respectively.

xanthine oxidase (XOD) = assay: Affinity ultrafiltration LC-MS/MS with XOD (relative binding affinity); conditions: peaks of WUE-A4, XOD 2 U, 37 °C 1 h, n = 3
Description: as §1, §2, §3

[2] = ABTS free radical scavenging assay; conditions: 30 min, 734 nm, n = 3; for IC50: pure compounds
Description: The ABTS free radical scavenging activities of extracts and pure compounds from stem barks of W. ugandensis were tested according to previous studies with slight modifications. ABTS^+ solution was prepared by mixing equal volumes of potassium persulfate (4.9 mM in H2O) and ABTS (7.0 mM in H2O) and then incubated for 12 h in the darkness. The prepared ABTS^+ solution was diluted with MeOH to ensure an absorbance value about 0.700 ± 0.005 at 734 nm. Firstly, 10 µL of appropriately diluted solution of samples was added to the 190 µL ABTS^+ solution in 96-well plate. Secondly, the mixtures were gently shaken and put at room temperature for 30 min in the darkness. Finally, the absorbance was recorded at 734 nm with multifunctional microplate reader. Trolox was used as positive control, and MeOH was used as blank control. Samples and controls were tested in triplicate (n = 3). The antioxidant activities of ABTS were expressed as IC50 and TEAC values. The inhibition of the ABTS radicals was calculated according to the following formula:ABTS scavenging activity (%) = (1 − absorbance of sample/absorbance of blank control) × 100,(2) where ABTS scavenging activities (%) were plotted against the concentration of samples to acquire the IC50.

[3] = DPPH free radical scavenging assay; conditions: 30 min, 517 nm, n = 3; for IC50: pure compounds
Description: The DPPH free radical scavenging activities of extracts and pure compounds from stem barks of W. ugandensis were tested according to previous studies with slight modifications. Firstly, 10 µL solutions of the samples, appropriately diluted with MeOH, were homogeneously mixed with 190 µL solution of DPPH (0.1 mM in MeOH) in a 96-well plate. Secondly, the mixtures were gently shaken and put at room temperature for 30 min in the darkness. Finally, the absorbance was recorded at 517 nm with multifunctional microplate reader. Trolox was used as positive control, and MeOH was used as blank control. Each of the samples and controls were tested in triplicate (n = 3). The antioxidant activities of DPPH were expressed as IC50 (concentration of samples caused 50% inhibition) and TEAC values. The TEAC values were calculated from the standard curve of Trolox and expressed as millimoles of Trolox equivalents per gram of sample (mmol TE/g). The inhibition of the DPPH radical was calculated according to the following formula:DPPH scavenging activity (%) = (1 − absorbance of sample/absorbance of blank control) × 100,(1) where DPPH scavenging activities (%) were plotted against the concentration of samples to obtain the IC50.

[4] = Ferric reducing antioxidant power (FRAP) assay; conditions: 37 °C, 10 min, 593 nm, n = 3
Description: The ferric reducing antioxidant power assays on different extracts and pure compounds of stem barks from W. ugandensis were tested according to previous studies with slight modifications. Firstly, freshly prepared FRAP reagent (Fe^3+-TPTZ solution) was composed of FeCl3∙6H2O (20 mM in H2O), TPTZ (10 mM in 40 mM HCl), and acetate buffer (300 mM, pH = 3.6) at a ratio of 1:1:10 (v/v/v), then incubated at 37 °C after preparation, and used within 1–2 h. Secondly, 10 µL of appropriately diluted solution of samples was added to the 190 µL freshly prepared FRAP reagent in 96-well plate. Thirdly, the mixtures were gently shaken and put at 37 °C for 10 min. Finally, the absorbance was recorded at 593 nm with multifunctional microplate reader. Trolox was used as a positive control, and MeOH was used as blank control. Each of the samples and controls were tested in triplicate (n = 3). The antioxidant activities of FRAP were expressed as FRAP values and TEAC values. The FRAP values were calculated and expressed as millimoles of Fe^2+ equivalents per gram of sample (mmol Fe^2+/g) based on a calibration curve plotted using FeSO4∙7H2O as standard at a concentration ranging from 0.0185 to 1.5 mM.

UF-RBA SOD (relative binding affinity = Aactive/Ainactivated) [1]	UF-RBA XOD (relative binding affinity = Aactive/Ainactivated) (xanthine oxidase (XOD))	ABTS IC50 ([2]; extracts/fractions)	IC50 [2]	DPPH IC50 ([3]; extracts/fractions)	IC50 [3]	UF-RBA XOD (relative binding affinity = Aactive/Ainactivated) (xanthine oxidase (XOD); listed as peak 12)	UF-RBA SOD (relative binding affinity = Aactive/Ainactivated) ([1]; listed as peak 3)	Compound	FRAP value [4]
1.1 ± 0.1 ^e	1.2 ± 0.1 ^c,d							O=C1OCC2OC(Oc3ccc(cc3)C(=O)OCC3OC(Oc4ccc1cc4)C(O)C(O)C3O)C(O)C(O)C2O [compound 5, 4-[(6′-O-β-D-allopyranosyl)-oxy]-hydroxy-benzoic acid cyclic dimeric inner ester]	
		5.9 ± 0.1 ^e µg/mL	22.4 µM	9.0 ± 0.3 ^f µg/mL	36 µM			Cc1c(C)c2c(c(C)c1O)CCC(C)(C(=O)O)O2 (stereo not shown) [Trolox, 6-Hydroxy-2,5,7,8-tetramethylchroman-2-carboxylic acid, reference compound]	16.212 ± 1.271 mmol Fe^2+/g and 16.2 ± 1.3 ^a mmol Fe^2+/g
-	1.7 ± 0.5 ^b,c		1150 ± 630 µM		142 ± 36.1 µM	1.70		1-(3,4-dihydroxy-5-methoxyphenyl)-1,2-dihydroxy-7,8-dihydroxy-N-[(4-hydroxyphenyl)-ethyl]-N′-[(4-hydroxyphenyl) -ethyl]-6-methoxynaphthalene-2,3-dicarboxamide [compound 12]	1.1 ± 0.2 ^c mmol Fe^2+/g
2.0 ± 0.1 ^a,b	1.0 ± 0.2 ^d						1.99	C[C@@H]1O[C@@H](O[C@@H]2[C@@H](O)[C@H](O)[C@@H](CO)O[C@H]2c2cc(-c3cc(=O)c4c(O)cc(O)cc4o3)ccc2O)[C@H](O)[C@H](O)[C@H]1O [compound 3, 2-[3-[2-O-(6-deoxy-α-L-mannopyranosyl)-β-D-glucopyranosyl]-4-hydroxyphenyl]-5,7-dihydroxy-4H-1-benzopyran-4-one]	

Reference: article PMC8001783, “New Lignanamides with Antioxidant and Anti-Inflammatory Activities Screened Out and Identified from Warburgia ugandensis Combining Affinity Ultrafiltration LC-MS with SOD and XOD Enzymes” (Antioxidants, 2021)
